What was measured:
[1] = target: Sodium/potassium-transporting ATPase subunit alpha-1 (Rattus norvegicus, UniProt P06685); assay: Inhibition of Wistar rat kidney Na+,K+-ATPase alpha1 after 2 hrs
[2] = target: Sarcoplasmic/endoplasmic reticulum calcium ATPase 1 (Rattus norvegicus, UniProt Q64578); assay: Inhibition of Wistar rat EDL muscle SERCA1a after 1 hr
Sequence of Sarcoplasmic/endoplasmic reticulum calcium ATPase 1 (Q64578 whole entry): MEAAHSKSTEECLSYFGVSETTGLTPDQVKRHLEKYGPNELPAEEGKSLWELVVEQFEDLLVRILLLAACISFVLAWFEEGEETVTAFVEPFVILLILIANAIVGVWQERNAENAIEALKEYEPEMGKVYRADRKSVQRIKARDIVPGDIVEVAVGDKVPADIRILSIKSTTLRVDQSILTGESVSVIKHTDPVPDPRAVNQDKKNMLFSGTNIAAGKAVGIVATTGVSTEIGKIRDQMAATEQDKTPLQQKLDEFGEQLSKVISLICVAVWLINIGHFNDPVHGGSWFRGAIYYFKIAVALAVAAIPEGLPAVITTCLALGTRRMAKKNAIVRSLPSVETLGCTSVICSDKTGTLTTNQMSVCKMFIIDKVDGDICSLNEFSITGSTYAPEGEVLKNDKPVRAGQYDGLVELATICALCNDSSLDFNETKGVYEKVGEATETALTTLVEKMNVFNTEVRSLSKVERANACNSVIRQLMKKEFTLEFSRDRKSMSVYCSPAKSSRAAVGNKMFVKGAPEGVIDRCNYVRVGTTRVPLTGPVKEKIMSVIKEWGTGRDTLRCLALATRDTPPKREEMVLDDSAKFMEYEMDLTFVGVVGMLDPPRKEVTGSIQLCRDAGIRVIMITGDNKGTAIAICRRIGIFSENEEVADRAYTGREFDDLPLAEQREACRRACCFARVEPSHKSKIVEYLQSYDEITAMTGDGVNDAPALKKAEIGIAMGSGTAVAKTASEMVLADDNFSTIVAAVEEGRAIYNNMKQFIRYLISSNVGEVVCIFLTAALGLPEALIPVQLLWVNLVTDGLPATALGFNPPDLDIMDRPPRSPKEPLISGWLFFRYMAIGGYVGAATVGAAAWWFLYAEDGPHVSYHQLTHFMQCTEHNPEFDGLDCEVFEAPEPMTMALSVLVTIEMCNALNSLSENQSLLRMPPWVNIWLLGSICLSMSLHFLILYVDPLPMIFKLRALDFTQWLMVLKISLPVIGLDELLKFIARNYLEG

Structure (SMILES): CC[C@H](C)[C@H]1O[C@]2(CC[C@@H]1C)C[C@@H]1C[C@@H](C/C=C(\C)[C@@H](O[C@H]3C[C@H](OC)[C@@H](O[C@H]4C[C@H](OC)[C@@H](O)[C@H](C)O4)[C@H](C)O3)[C@@H](C)/C=C/C=C3\CO[C@@H]4[C@H](O)C(C)=C[C@@H](C(=O)O1)[C@]34O)O2 [ABAMECTIN]
- IC50 [1]: 8.23 µM
- IC50 [2]: 16.9 µM
